≈ marks a conversion by molar mass, not a printed value.
The compounds below were run on E. coli BW25113 (assay: MIC, microdilution in 96-well plates). Conditions: Escherichia coli, BW25113, B: E. coli BW25113; read-out: MIC.
Format: cell-based
Method in brief: (§1)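 Each of the 20 strains is tested in LB at a 1:10000 dilution of a growing subculture. Compound is titrated 2-fold in three replicates; a DMSO column serves as vehicle control. After shaking incubation at 37° C. for 16-18 hours, MIC is taken as the lowest clear concentration.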

| SMILES | MIC |
| --- | --- |
| O=S(=O)(N[C@@H]1CCN(Cc2ccc(OC(F)F)cc2)C1)c1cccc(C(F)(F)F)c1 [Compound 87] | > 8 µg/mL |
| O=S(=O)(N[C@@H]1CCN(Cc2ccc(-c3ccccc3)cc2)C1)c1cc(C(F)(F)F)cc(C(F)(F)F)c1 [Compound 81] | > 8 µg/mL |
| O=S(=O)(N[C@@H]1CCN(Cc2ccc(-c3ccccc3)cc2)C1)c1cnccc1Cl [Compound 122] | > 8 µg/mL |
| CC(C)Oc1ccc(CN2CC[C@@H](NS(=O)(=O)c3cnc4ccccc4c3)C2)cc1 [Compound 93] | > 8 µg/mL |
| O=S(=O)(N[C@@H]1CCN(Cc2ccc(-c3ccc(Cl)cc3)cc2)C1)c1cccc(OC(F)(F)F)c1 [Compound 103] | > 8 µg/mL |

The compounds below were run on Edwardsiella tarda (assay: MIC, microdilution in 96-well plates). Conditions: D: Edwardsiella tarda.
Format: cell-based
Method in brief: as §1

| SMILES | MIC |
| --- | --- |
| O=S(=O)(N[C@@H]1CCN(Cc2ccc(OC(F)F)cc2)C1)c1cccc(C(F)(F)F)c1 [Compound 87] | > 8 µg/mL |
| O=S(=O)(N[C@@H]1CCN(Cc2ccc(-c3ccccc3)cc2)C1)c1cc(C(F)(F)F)cc(C(F)(F)F)c1 [Compound 81] | > 8 µg/mL |
| O=S(=O)(N[C@@H]1CCN(Cc2ccc(-c3ccccc3)cc2)C1)c1cnccc1Cl [Compound 122] | > 8 µg/mL |
| CC(C)Oc1ccc(CN2CC[C@@H](NS(=O)(=O)c3cnc4ccccc4c3)C2)cc1 [Compound 93] | > 8 µg/mL |
| O=S(=O)(N[C@@H]1CCN(Cc2ccc(-c3ccc(Cl)cc3)cc2)C1)c1cccc(OC(F)(F)F)c1 [Compound 103] | > 8 µg/mL |

What follows are compounds tested on E. coli JW5503 (deltolC) (assay: MIC, 20-strain panel). Conditions: Escherichia coli, C: E. coli JW5503 (deltolC).
Format: cell-based
Method in brief: as §1

| SMILES | MIC |
| --- | --- |
| O=S(=O)(N[C@@H]1CCN(Cc2ccc(OC(F)F)cc2)C1)c1cccc(C(F)(F)F)c1 [Compound 87] | 2 µg/mL (≈ 4.44 µM) |
| O=S(=O)(N[C@@H]1CCN(Cc2ccc(-c3ccccc3)cc2)C1)c1cc(C(F)(F)F)cc(C(F)(F)F)c1 [Compound 81] | > 8 µg/mL |
| O=S(=O)(N[C@@H]1CCN(Cc2ccc(-c3ccccc3)cc2)C1)c1cnccc1Cl [Compound 122] | 4 µg/mL (≈ 9.35 µM) |
| CC(C)Oc1ccc(CN2CC[C@@H](NS(=O)(=O)c3cnc4ccccc4c3)C2)cc1 [Compound 93] | > 8 µg/mL |
| O=S(=O)(N[C@@H]1CCN(Cc2ccc(-c3ccc(Cl)cc3)cc2)C1)c1cccc(OC(F)(F)F)c1 [Compound 103] | ~8 µg/mL (≈ 15.7 µM) |

What follows are compounds tested on E. coli MG1655 (assay: MIC, 20-strain panel). Conditions: Escherichia coli, MG1655, A: E. coli MG1655; read-out: MIC.
Format: cell-based
Method in brief: as §1

| SMILES | MIC |
| --- | --- |
| O=S(=O)(N[C@@H]1CCN(Cc2ccc(OC(F)F)cc2)C1)c1cccc(C(F)(F)F)c1 [Compound 87] | > 8 µg/mL |
| O=S(=O)(N[C@@H]1CCN(Cc2ccc(-c3ccccc3)cc2)C1)c1cc(C(F)(F)F)cc(C(F)(F)F)c1 [Compound 81] | > 8 µg/mL |
| O=S(=O)(N[C@@H]1CCN(Cc2ccc(-c3ccccc3)cc2)C1)c1cnccc1Cl [Compound 122] | > 8 µg/mL |
| CC(C)Oc1ccc(CN2CC[C@@H](NS(=O)(=O)c3cnc4ccccc4c3)C2)cc1 [Compound 93] | > 8 µg/mL |
| O=S(=O)(N[C@@H]1CCN(Cc2ccc(-c3ccc(Cl)cc3)cc2)C1)c1cccc(OC(F)(F)F)c1 [Compound 103] | > 8 µg/mL |

What follows are compounds tested on Klebsiella pneumoniae subsp. pneumoniae (assay: MIC, 20-strain panel). Conditions: E: Klebsiella pneumoniae subsp. pneumoniae.
Format: cell-based
Method in brief: as §1

| SMILES | MIC |
| --- | --- |
| O=S(=O)(N[C@@H]1CCN(Cc2ccc(OC(F)F)cc2)C1)c1cccc(C(F)(F)F)c1 [Compound 87] | > 8 µg/mL |
| O=S(=O)(N[C@@H]1CCN(Cc2ccc(-c3ccccc3)cc2)C1)c1cc(C(F)(F)F)cc(C(F)(F)F)c1 [Compound 81] | > 8 µg/mL |
| O=S(=O)(N[C@@H]1CCN(Cc2ccc(-c3ccccc3)cc2)C1)c1cnccc1Cl [Compound 122] | > 8 µg/mL |
| CC(C)Oc1ccc(CN2CC[C@@H](NS(=O)(=O)c3cnc4ccccc4c3)C2)cc1 [Compound 93] | > 8 µg/mL |
| O=S(=O)(N[C@@H]1CCN(Cc2ccc(-c3ccc(Cl)cc3)cc2)C1)c1cccc(OC(F)(F)F)c1 [Compound 103] | > 8 µg/mL |

The compounds below were run on Salmonella enterica subsp. enterica typhimurium (assay: MIC, 20-strain panel). Conditions: F: Salmonella enterica subsp. enterica Typhimurium.
Format: cell-based
Method in brief: as §1

| SMILES | MIC |
| --- | --- |
| O=S(=O)(N[C@@H]1CCN(Cc2ccc(OC(F)F)cc2)C1)c1cccc(C(F)(F)F)c1 [Compound 87] | > 8 µg/mL |
| O=S(=O)(N[C@@H]1CCN(Cc2ccc(-c3ccccc3)cc2)C1)c1cc(C(F)(F)F)cc(C(F)(F)F)c1 [Compound 81] | > 8 µg/mL |
| O=S(=O)(N[C@@H]1CCN(Cc2ccc(-c3ccccc3)cc2)C1)c1cnccc1Cl [Compound 122] | > 8 µg/mL |
| CC(C)Oc1ccc(CN2CC[C@@H](NS(=O)(=O)c3cnc4ccccc4c3)C2)cc1 [Compound 93] | > 8 µg/mL |
| O=S(=O)(N[C@@H]1CCN(Cc2ccc(-c3ccc(Cl)cc3)cc2)C1)c1cccc(OC(F)(F)F)c1 [Compound 103] | > 8 µg/mL |

These compounds were tested on Shigella flexneri (assay: MIC, 20-strain panel). Conditions: G: Shigella flexneri.
Format: cell-based
Method in brief: as §1

| SMILES | MIC |
| --- | --- |
| O=S(=O)(N[C@@H]1CCN(Cc2ccc(OC(F)F)cc2)C1)c1cccc(C(F)(F)F)c1 [Compound 87] | > 8 µg/mL |
| O=S(=O)(N[C@@H]1CCN(Cc2ccc(-c3ccccc3)cc2)C1)c1cc(C(F)(F)F)cc(C(F)(F)F)c1 [Compound 81] | > 8 µg/mL |
| O=S(=O)(N[C@@H]1CCN(Cc2ccc(-c3ccccc3)cc2)C1)c1cnccc1Cl [Compound 122] | > 8 µg/mL |
| CC(C)Oc1ccc(CN2CC[C@@H](NS(=O)(=O)c3cnc4ccccc4c3)C2)cc1 [Compound 93] | > 8 µg/mL |
| O=S(=O)(N[C@@H]1CCN(Cc2ccc(-c3ccc(Cl)cc3)cc2)C1)c1cccc(OC(F)(F)F)c1 [Compound 103] | > 8 µg/mL |

Each compound was assayed on Staphylococcus aureus subsp. aureus (assay: MIC, 20-strain panel). Conditions: H: Staphylococcus aureus subsp. aureus, read-out: MIC.
Format: cell-based
Method in brief: as §1

| SMILES | MIC |
| --- | --- |
| O=S(=O)(N[C@@H]1CCN(Cc2ccc(OC(F)F)cc2)C1)c1cccc(C(F)(F)F)c1 [Compound 87] | > 8 µg/mL |
| O=S(=O)(N[C@@H]1CCN(Cc2ccc(-c3ccccc3)cc2)C1)c1cc(C(F)(F)F)cc(C(F)(F)F)c1 [Compound 81] | > 8 µg/mL |
| O=S(=O)(N[C@@H]1CCN(Cc2ccc(-c3ccccc3)cc2)C1)c1cnccc1Cl [Compound 122] | > 8 µg/mL |
| CC(C)Oc1ccc(CN2CC[C@@H](NS(=O)(=O)c3cnc4ccccc4c3)C2)cc1 [Compound 93] | > 8 µg/mL |
| O=S(=O)(N[C@@H]1CCN(Cc2ccc(-c3ccc(Cl)cc3)cc2)C1)c1cccc(OC(F)(F)F)c1 [Compound 103] | 8 µg/mL (≈ 15.7 µM) |

Each compound was assayed on Staphylococcus epidermidis (assay: MIC, 20-strain panel). Conditions: not given.
Format: cell-based
Method in brief: as §1

| SMILES | MIC |
| --- | --- |
| O=S(=O)(N[C@@H]1CCN(Cc2ccc(OC(F)F)cc2)C1)c1cccc(C(F)(F)F)c1 [Compound 87] | > 8 µg/mL |
| O=S(=O)(N[C@@H]1CCN(Cc2ccc(-c3ccccc3)cc2)C1)c1cc(C(F)(F)F)cc(C(F)(F)F)c1 [Compound 81] | 8 µg/mL (≈ 15.1 µM) |
| O=S(=O)(N[C@@H]1CCN(Cc2ccc(-c3ccccc3)cc2)C1)c1cnccc1Cl [Compound 122] | ~8 µg/mL (≈ 18.7 µM) |
| CC(C)Oc1ccc(CN2CC[C@@H](NS(=O)(=O)c3cnc4ccccc4c3)C2)cc1 [Compound 93] | > 8 µg/mL |
| O=S(=O)(N[C@@H]1CCN(Cc2ccc(-c3ccc(Cl)cc3)cc2)C1)c1cccc(OC(F)(F)F)c1 [Compound 103] | 8 µg/mL (≈ 15.7 µM) |

The compounds below were run on Staphylococcus saprophyticus subsp. saprophyticus (assay: MIC, 20-strain panel). Conditions: not given.
Format: cell-based
Method in brief: as §1

| SMILES | MIC |
| --- | --- |
| O=S(=O)(N[C@@H]1CCN(Cc2ccc(OC(F)F)cc2)C1)c1cccc(C(F)(F)F)c1 [Compound 87] | > 8 µg/mL |
| O=S(=O)(N[C@@H]1CCN(Cc2ccc(-c3ccccc3)cc2)C1)c1cc(C(F)(F)F)cc(C(F)(F)F)c1 [Compound 81] | > 8 µg/mL |
| O=S(=O)(N[C@@H]1CCN(Cc2ccc(-c3ccccc3)cc2)C1)c1cnccc1Cl [Compound 122] | > 8 µg/mL |
| CC(C)Oc1ccc(CN2CC[C@@H](NS(=O)(=O)c3cnc4ccccc4c3)C2)cc1 [Compound 93] | > 8 µg/mL |
| O=S(=O)(N[C@@H]1CCN(Cc2ccc(-c3ccc(Cl)cc3)cc2)C1)c1cccc(OC(F)(F)F)c1 [Compound 103] | > 8 µg/mL |

The compounds below were run on Streptococcus agalactiae (assay: MIC, 20-strain panel). Conditions: not given.
Format: cell-based
Method in brief: as §1

| SMILES | MIC |
| --- | --- |
| O=S(=O)(N[C@@H]1CCN(Cc2ccc(OC(F)F)cc2)C1)c1cccc(C(F)(F)F)c1 [Compound 87] | > 8 µg/mL |
| O=S(=O)(N[C@@H]1CCN(Cc2ccc(-c3ccccc3)cc2)C1)c1cc(C(F)(F)F)cc(C(F)(F)F)c1 [Compound 81] | > 8 µg/mL |
| O=S(=O)(N[C@@H]1CCN(Cc2ccc(-c3ccccc3)cc2)C1)c1cnccc1Cl [Compound 122] | > 8 µg/mL |
| CC(C)Oc1ccc(CN2CC[C@@H](NS(=O)(=O)c3cnc4ccccc4c3)C2)cc1 [Compound 93] | > 8 µg/mL |
| O=S(=O)(N[C@@H]1CCN(Cc2ccc(-c3ccc(Cl)cc3)cc2)C1)c1cccc(OC(F)(F)F)c1 [Compound 103] | > 8 µg/mL |

The compounds below were run on Streptococcus pyogenes (assay: MIC, 20-strain panel). Conditions: not given.
Format: cell-based
Method in brief: as §1

| SMILES | MIC |
| --- | --- |
| O=S(=O)(N[C@@H]1CCN(Cc2ccc(OC(F)F)cc2)C1)c1cccc(C(F)(F)F)c1 [Compound 87] | > 8 µg/mL |
| O=S(=O)(N[C@@H]1CCN(Cc2ccc(-c3ccccc3)cc2)C1)c1cc(C(F)(F)F)cc(C(F)(F)F)c1 [Compound 81] | ~8 µg/mL (≈ 15.1 µM) |
| O=S(=O)(N[C@@H]1CCN(Cc2ccc(-c3ccccc3)cc2)C1)c1cnccc1Cl [Compound 122] | > 8 µg/mL |
| CC(C)Oc1ccc(CN2CC[C@@H](NS(=O)(=O)c3cnc4ccccc4c3)C2)cc1 [Compound 93] | > 8 µg/mL |
| O=S(=O)(N[C@@H]1CCN(Cc2ccc(-c3ccc(Cl)cc3)cc2)C1)c1cccc(OC(F)(F)F)c1 [Compound 103] | ~8 µg/mL (≈ 15.7 µM) |

Reference: patent US10253039B2, “Inhibitors of bacterial DNA gyrase with efficacy against gram-negative bacteria” (priority 2014, dated 2019)
